Experimental data reported in PMC6150325 (Molecules : A Journal of Synthetic Chemistry and Natural …, 2017).
“And” between values parts separate entries of the source, which are not always exact repeats. Identical values can stand only once. Like-named read-outs stand apart in the source and are kept apart here.

Legend:
[1] = target: T1, bacterial Vibrio cholerae neuraminidase (VCNA) (Vibrio cholerae serotype O1, UniProt P0C6E9); experiment: biochemical; conditions: mean ± SD, n = 3–6
T1 construct: purchased Hoffmann La Roche, Basel, Switzerland
T1 sequence (P0C6E9 25-781): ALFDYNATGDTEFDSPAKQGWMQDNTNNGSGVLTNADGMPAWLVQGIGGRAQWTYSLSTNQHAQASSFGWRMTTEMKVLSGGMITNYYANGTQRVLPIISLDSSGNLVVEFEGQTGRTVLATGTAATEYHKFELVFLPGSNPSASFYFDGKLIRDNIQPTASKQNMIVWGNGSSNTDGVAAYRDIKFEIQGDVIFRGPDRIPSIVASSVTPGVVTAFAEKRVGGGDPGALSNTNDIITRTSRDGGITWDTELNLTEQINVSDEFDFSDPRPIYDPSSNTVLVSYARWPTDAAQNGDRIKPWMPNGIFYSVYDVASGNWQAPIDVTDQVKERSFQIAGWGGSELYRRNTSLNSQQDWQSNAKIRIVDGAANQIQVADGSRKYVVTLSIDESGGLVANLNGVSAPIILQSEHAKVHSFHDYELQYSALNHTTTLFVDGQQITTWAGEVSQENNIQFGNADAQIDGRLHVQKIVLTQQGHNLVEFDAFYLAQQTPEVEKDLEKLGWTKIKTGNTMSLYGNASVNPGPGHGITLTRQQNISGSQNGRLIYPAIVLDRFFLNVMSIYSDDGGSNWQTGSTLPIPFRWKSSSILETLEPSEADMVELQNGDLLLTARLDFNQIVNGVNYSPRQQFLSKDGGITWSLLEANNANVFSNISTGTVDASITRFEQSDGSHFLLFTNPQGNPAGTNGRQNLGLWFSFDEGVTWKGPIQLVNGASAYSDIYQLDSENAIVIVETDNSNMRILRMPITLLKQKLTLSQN

[2] = target: viral influenza A/California/04/2009 (H1N1) neuraminidase (H1N1-NA) (Influenza A virus (A/California/04/2009(H1N1)), UniProt C3W5S3); experiment: biochemical; type: biochemical
[3] = target: Streptococcus pneumoniae NA NanA; conditions: cited from earlier work
Ruminococcus gnavus NA = conditions: cited from earlier work
bacterial VCNA = target: T2, bacterial VCNA (Vibrio cholerae serotype O1, UniProt P0C6E9); experiment: biochemical
T2 construct: purchased Hoffmann La Roche, Basel, Switzerland
T2 sequence (P0C6E9 25-781): as above
Procedure: The median–effect concentration (Dm, a parameter analogous to the IC50 value indicating potency), the slope of the concentration–effect relationship (m, the dynamic order or the shape of dose–effect curve), and the linear regression correlation coefficient (r, a measure of data quality) were determined from the median–effect plots.
The concentration–efficiency curves of the test samples were transformed into the double-logarithmic mean action diagram (shape (m), intercepts and regression coefficients were used to determine the median effect dose Dm). Dm= 10^−(b/m)
Fraction affected (fa) and fraction unaffected (fu) by the concentration D were calculated by the median effect equation [27]: fa/fu= (D/Dm)^m
Dm is the concentration required to produce the median effect.

SMILES | IC50 [1] | IC50 ([2]; IC50 (Viral)) | also measured
O=C1O[C@H]2[C@H](OC(=O)c3cc(O)c(O)c(O)c3)[C@@H](OC(=O)c3cc(O)c(O)c4c3[C@@H]3C1=CC(=O)[C@](O)(O4)C3(O)O)[C@@H]1OC(=O)c3cc(O)c(O)c(O)c3-c3c(cc(O)c(O)c3O)C(=O)OC[C@H]2O1 [carpinusin] | 138 µM |  | 
O=C1OC[C@@H](O)[C@H]([C@@H]2OC(=O)c3cc(O)c(O)c(O)c3-c3c(O)c(O)c(O)c4c3C(=O)O[C@H]2[C@@H]4O)OC(=O)c2cc(O)c(O)c(O)c2-c2c1cc(O)c(O)c2O [casuariin] | 236 µM |  | 
O=C(O[C@H]1Cc2c(O)cc(O)cc2O[C@@H]1c1ccc(O)c(O)c1)c1cc(O)c(O)c(O)c1 [catechin-3-O-gallate] | 54.3 µM and 55 µM | 1950 µM | 
Oc1cc(O)c2c(c1)O[C@H](c1ccc(O)c(O)c1)[C@@H](O)C2 [catechin] | 2050 µM | 1070 µM and 1080 µM | 
O=C(O[C@@H]1Cc2c(O)cc(O)cc2O[C@@H]1c1ccc(O)c(O)c1)c1cc(O)c(O)c(O)c1 [epicatechin-3-O-gallate] | 210 µM and 211 µM | 1910 µM | 
Oc1cc(O)c2c(c1)O[C@H](c1ccc(O)c(O)c1)[C@H](O)C2 [epicatechin] | 2310 µM | 1050 µM | 
O=C(O[C@@H]1Cc2c(O)cc(O)cc2O[C@@H]1c1cc(O)c(O)c(O)c1)c1cc(O)c(O)c(O)c1 [epigallocatechin-3-O-gallate] | 63.3 µM and 64 µM | 1560 µM | 
Oc1cc(O)c2c(c1)O[C@H](c1cc(O)c(O)c(O)c1)[C@H](O)C2 [epigallocatechin] | 1950 µM and 1960 µM | 1740 µM | 
O=C(O[C@H]1Cc2c(O)cc(O)cc2O[C@@H]1c1cc(O)c(O)c(O)c1)c1cc(O)c(O)c(O)c1 [gallocatechin-3-O-gallate] | 24 µM and 25 µM | 395 µM and 396 µM | 
Oc1cc(O)c2c(c1)O[C@H](c1cc(O)c(O)c(O)c1)[C@@H](O)C2 [gallocatechin] | 1970 µM | 1790 µM | 
O=C1O[C@H]2[C@@H]3OC(=O)c4cc(O)c(O)c(O)c4-c4c(cc(O)c(O)c4O)C(=O)OC[C@H]2O[C@@H](OC(=O)c2cc(O)c(O)c(O)c2)[C@@H]3OC(=O)c2cc(O)c(O)c3c2[C@@H]2C1=CC(=O)[C@](O)(O3)C2(O)O [geraniin] | 134 µM and 135 µM |  | 
O=C1O[C@H]2[C@H](O)[C@@H](OC(=O)c3cc(O)c(O)c4c3[C@@H]3C1=CC(=O)[C@](O)(O4)C3(O)O)[C@@H]1OC(=O)c3cc(O)c(O)c(O)c3-c3c(cc(O)c(O)c3O)C(=O)OC[C@H]2O1 [granatin A] | 155 µM and 158 µM |  | 
CCC(CC)O[C@@H]1C=C(C(=O)O)C[C@H](N)[C@H]1NC(C)=O [oseltamivir carboxylate] |  |  | Ki [3]: 1.77 µM; IC50 (Ruminococcus gnavus NA): 30 µM
O=C(OCC1OC(OC(=O)c2cc(O)c(O)c(O)c2)C(OC(=O)c2cc(O)c(O)c(O)c2)C(OC(=O)c2cc(O)c(O)c(O)c2)C1OC(=O)c1cc(O)c(O)c(O)c1C1c2c(O)c(O)c(O)c3c2C(=O)OC1C(C1OC(=O)c2cc(O)c(O)c(O)c2-c2c(cc(O)c(O)c2O)C(=O)OCC1O)OC(=O)c1cc(O)c(O)c(O)c1-3)c1cc(O)c(O)c(O)c1 (stereo not drawn) [paeonianin C] | 14.6 µM and 15 µM |  | IC50 ([2]; read-out: IC50 (Viral)): 344 µM
O=C1O[C@H]2[C@H](OC(=O)c3cc(O)c(O)c(O)c3)[C@@H](OC(=O)c3cc(O)c(O)c4c3[C@@H]3C1=CC(=O)C(O)(O)C3(O)O4)[C@H](OC(=O)c1cc(O)c(O)c(O)c1)O[C@@H]2COC(=O)c1cc(O)c(O)c(O)c1 (stereo partly drawn) [terchebin] | 30.4 µM and 31 µM | 102 µM and 101 µM | fold higher inhibitory potency compared to paeonianin C [2]: 3.5 fold
O=C1OCC2OC(=O)c3cc(O)c(O)c(O)c3-c3c(O)c(O)c(O)c4c3C(=O)OC(C2OC(=O)c2cc(O)c(O)c(O)c2-c2c1cc(O)c(O)c2O)C1OC(=O)c2c-4c(O)c(O)c(O)c2C1O (stereo not drawn) [vescalagin] | 134 µM |  | 
CC(=O)N[C@H]1[C@H]([C@H](O)[C@H](O)CO)OC(C(=O)O)=C[C@@H]1N=C(N)N [zanamivir, 2,4-dideoxy-2,3-didehydro-4-guanidino-N-acetylneuraminic acid] | 51.2 µM and 52 µM |  | IC50 (bacterial VCNA): 51.2 µM; m (slope of the concentration–effect relationship) (bacterial VCNA; VCNA, median effect plot): 0.9; Ki [3]: 720 µM; IC50 (Ruminococcus gnavus NA): 11900 µM
